Ends that are not written are not given here. Some results are limits rather than exact numbers.

We go through nine molecules from patent publication US10435697B2, “Recombinant expression system that senses pathogenic microorganisms” (priority 2014, dated 2019).

The subject of test [1] is CqsS/CAI-1 quorum-sensing phosphorelay system of V. cholerae. Put plainly: CAI-1 sensing by two-plasmid system (CqsS, LuxU, LuxO; GFP under pQrr4). The test is classed as cell-based, Vibrio cholerae. The settings on record: LuxO induced by arabinose. An excerpt: In the test construct the pBAD promoter drives LuxO. […] This is due to the downregulation of pQrr4 promoter by the CqsS cascade originating form V. cholera. In contrast, no alteration of GFP expression was observed when arabinose was present, but CAI-1 was absent. […] The system is inducible by arabinose in order to add an additional level of control.
In the next step, a double plasmid system, with the CqsS (SEQ ID NO 6), LuxU (SEQ ID NO 7) and LuxO (SEQ ID NO 8) genes expressed on one plasmid and GFP (SEQ ID NO) under pQrr4 promoter (SEQ ID NO 19) on another was generated. Thus, this system comprises the CAI-1 sensor module, in which phosphorylated LuxO activates the Qrr4 promoter. In the test construct the pBAD promoter drives LuxO, which is inducible by arabinose.
In other words, the system changes its fluorescence with different concentrations of CAI-1.

Test [2] concerns V. cholerae. The settings on record: previously shown (Da Silva 2008; Moghaddam 2012; Yaraksa 2014); cited from earlier work.
The next test concerns E. coli Top10. In words: Growth curves (OD600) of E. coli Top10 after induced expression of the peptide from a plasmid. The test is classed as cell-based, Escherichia coli. From the text: To evaluate the activity of Microcin S (mcsS) and Microcin immunity protein (mcsI) in E. coli Top10 cells five different plasmids were constructed (FIG. 10).
Moreover, also the effect of Microcin immunity protein (mcsI) in the presence of Microcin S was studied. For this, the mcsI gene was introduced into the pBbE8K+McsS-YebF-I and pBbE8K+McsS-I plasmids resulting in pBbE8K+McsI+McsS-YebF-II and pBbE8K+McsI+McsS-II, respectively. In these constructs, mcsS expression is controlled by an araC pBAD activator-promoter (SEQ ID NO), rendering Microcin S expression inducible by L-arabinose. In contrast, mcsI expression is constitutively ON when using the rrnB promoter (SEQ ID NO 28).
Furthermore, also the effect of Microcin whole cascade in E. coli Top10 growing in liquid culture with 0.125% arabinose and without arabinose after being transformed with construct 5 of FIG. 12 was studied.
For example, in the case of CM11 (P3) the P3 gene was cloned under the arabinose promoter (pBAD) in the pBbE8K vector resulting in the pBbE8K+P3 plasmid. In other words, P3 expression in this construct is controlled by an araC PBAD activator-promoter, rendering P3 expression inducible by L-arabinose.
In addition, in order to characterize the lysis activity in E. coli, the lysis E7 gene was cloned under the tetracycline promoter (pTet) in the pBbA2C vector resulting in the pBbA2C+E7 plasmid.

In another test the test system is pathogenic E. coli. The settings on record: Yaraksa et al. 2014; cited from earlier work.
The test system of test [3] is V. cholerae (A1522 Rugose-GFP). The test is classed as cell-based, Vibrio cholerae. The settings on record: LB broth, 18-20 h at 37° C., absorbance and GFP fluorescence monitored, DMSO control. As to the method:
[…]. The target cells were effectively killed at an MIC of 50 μM. As a control only DMSO was used. As the target cells express GFP embedded into its chromosome, the GFP fluorescence (B) along with the absorbance (growth) (A) was monitored in this experiment.
(§1) Moreover, a minimum inhibitory concentration (MIC) assay was conducted using CM11 (P3). The medium used for the broth microdilution test was LB Broth and the cells were V. cholera A1522-Rugose-GFP and E. coli Nissile strains. Overnight cultures were transferred into 5 ml of LB and were grown at 37° C. for 2-3 h. To approximate the density of 0.5 McFarland standard, this suspension with the inoculum concentration of 108 colony forming units (CFU/ml) was then diluted to 106 CFU/ml with the LB broth. Peptide P3 stock solution of 1000 μg/ml was prepared using DMSO. Serial two-fold dilutions of the peptide (P3) with the following concentration (2-100 μg/ml) were prepared with LB broth and placed in 96-well microtiter plates and the lowest concentration inhibiting visible growth after 18-20 h at 37° C. was recorded as MIC (see FIGS. 16 and 17).

In another test the test system is E. coli Nissile. The format is cell-based, Escherichia coli. The conditions noted are these: LB broth, 18-20 h at 37° C., DMSO control. As to the method:
FIG. 17 MIC of the synthetic peptide CM11 (P3) against E. coli Nissile. […] As a control only DMSO was used.
as §1

In test [4] the test system is V. cholerae. In words: Microbroth dilution assay of purified Microcin S on V. cholerae. The format is cell-based, Vibrio cholerae. As to the method: (§2) In addition, the Microcin S peptide was purified to test its efficacy on V. cholerae and E. coli. […] Subsequently, the cells were pelleted by centrifugation at 4000 g for 20 min and lysed using a sonicator. Purification of Microcin S was carried out using Qiagen Ni-NTA fast start kit. The eluate was dialysed using Slide-A-Lyzer dialysis cassette and a 2 KDa cutoff (Life Technologies) for 4 hrs in 1×PBS. The dialysed samples were concentrated by ultra filtration using a molecular mass cutoff membrane (Amicon Ultra-15 Centrifugal Filter Unit, Millipore). As the estimated size of the protein is approximately 12 kDa, the first concentration was done using a 30 kDa cutoff membrane where the flow-through was collected and subsequently passed through a 3 kDa cutoff membrane. The resulting retentate was collected and the concentration was quantified using Quant-IT protein assay kit (Life Technologies).
(§3) The induced sample expressed has Microcin S (FIG. 13B) and the fluorescence reading from the Quant-it assay was 1135, which was close to a concentration of 200 ng/μl, calculated from the standard curve (FIG. 13A). […] After the presence of Microcin S was confirmed from the purified sample, a microbroth dilution assay was carried out to measure the minimum inhibitory concentration of purified Microcin S on V. cholerae and E. coli. […]
A general note: In broth dilution the organism is exposed to a series of concentrations in liquid medium.

In the next test the test system is E. coli wt. In words: Microbroth dilution assay of purified Microcin S on E. coli. The test is classed as cell-based, Escherichia coli. As to the method:
as §2, §3

Where [5] appears, read: expression induced with 0.125% L-arabinose (pBAD), vs un-induced.

`CCCCCCCCCC(=O)[C@@H](O)CC` [CAI-1, (S)-3-hydroxytridecan-4-one]: the “GFP expression on addition of CAI-1” value in test [1] is “a drop in the GFP expression was observed”.
As to CM15 (KWKLFKKIGAVLKVL-NH2), the “activity against V. cholerae” value in the test with V. cholerae [2] is given as “show inhibitory activity”.
Turning to G12.21 (RRVSRRPMRRYRSRRPRRLV), the “activity against V. cholerae” value with V. cholerae [2] was “effectively control the growth of V. cholerae both in vitro and in vivo”.
For G14.15 (GRSRWRRVSRRFMRR), the “activity against V. cholerae” value with V. cholerae [2] was “effectively control the growth of V. cholerae both in vitro and in vivo”.
“Lysis E7 (MKKITGIILLLLAAIILAACQANYIRDVQGGTVSPSSTAELTGVETQ; Secretory peptide)”: in the test on E. coli Top10 (200 nM atc), the “time to lyse E. coli” value is at most 4 h. The “OD600 of host cell after induction (lysis)” value in the test with E. coli Top10 (pBbA2C+E7, 200 nM anhydrotetracycline, vs un-induced) was “reduced significantly due to the lysis”.
As for “Magainin 2 (GIGKFLHSAKKFGKAFVGEIMNS; listed as Xenopus laevis)”, the “activity against V. cholerae” value in the test on V. cholerae [2] is listed as “good killing efficiency”. For the same molecule, the “activity against pathogenic E. coli” value with pathogenic E. coli is “good killing efficiency”.
As to McsS-YebF, the “growth (OD600) of host cell after induction” value (“growth (OD600) of host cell” below) in the test on E. coli Top10 (setting [5]) is recorded as “complete growth inhibition”.
For WKLFKKILKVL-NH2 [CM11], the MIC in test [3] came out at 50 µM; against E. coli Nissile, 25 µM. Further, the “growth (OD600) of host cell” value with E. coli Top10 (pBbE8K+P3, induced with 0.2% L-arabinose, vs un-induced, listed as CM11 (P3)) is recorded as “reduces the growth of E. coli”; with E. coli Top10 (pBbE8K+P3, induced with 0.2% L-arabinose, vs un-induced, listed as P3), “reduced significantly”. Besides, the “activity against V. cholerae” value in the test with V. cholerae [2] is reported as “show inhibitory activity”.

B1: Microcin S (protein, listed as Escherichia coli)
chain: MSNIRELSFDEIALVSGGNANSNYEGGGSRSRNTGARNSLGRNAPTHIYSDPSTVKCANAVFSGMVGGAIKGGPVGMTRGTIGGAVIGQCLSGGGNGNGGGNRAGSSNCSGSNVGGTCSR
B1: the inhibitory activity result with V. cholerae [4] and in the test on E. coli wt was “has inhibitory activity” throughout. Also, the Minimal inhibition concentration is 100 µg/mL with V. cholerae [4] (LB broth, 4 hrs, OD) and 100 µg/mL in the test on E. coli wt (LB broth, 4 hrs, OD). Moreover, the “growth (OD600) of host cell” value was “reduced OD600 readings” with E. coli Top10 (setting [5]) and “complete growth inhibition” in the test on E. coli Top10 (expression induced with 0.125% L-arabinose (pBAD), vs un-induced, listed as McsS).

As usually defined, the MIC is the lowest concentration that inhibits growth of the organism. Read a low MIC as a more susceptible organism.
